The text below walks through data of patent USRE36784E, “Chemoprotective isothiocyanates” (The Johns Hopkins University, priority 1997, dated 2000).

Each structure is given as a SMILES string.

The first data set has as its system quinone reductase (QR) in Hepa 1c1c7 murine hepatoma cells. Briefly: Induction of QR (inducer potency, CD value) in Hepa 1c1c7 murine hepatoma cells. To be noted: 8.9 mg isolated after HPLC/TLC/HPLC. The format is cell-based.
Experimental: Assay of Inducer Potency. Inducer activity was measured in Hepa 1c1c7 murine hepatoma cells grown in 96-well microtiter plates (Prochaska and Santamaria, Anal. Biochem. 169:328-336 (1988); Prochaska et al., Proc. Natl. Acad. Sciences USA 89:2394-2398 (1992)). QR activity (based on the formation of the blue-brown reduced tetrazolium dye) was measured with an optical microtiter plate scanner in cell lysates prepared in one plate, and the cell density was determined in the second plate by staining with crystal violet. Quantitative information on specific activity of QR, the inducer potency, and the cytotoxicity of the extract or compound tested is obtained by computer analysis of the absorbances. One unit of inducer activity is defined as the amount that when added to a single microtiter well doubled the QR specific activity. The CD value is the concentration of a compound required to double the quinone reductase specific activity in Hepa 1c1c7 murine hepatoma cells.
Each of the analogs of sulforaphane was tested for the ability to induce QR in murine hepatoma cells by the assay described in Example 1.
Analogs were synthesized and tested in the hepatoma cell assay described in Example 1.
With `C[S@@+]([O-])CCCCN=C=S` [(R)-sulforaphane], the inducer activity is given as 558,000 inducer units.

The data set is the same for the next values; noted with them: Mus musculus, Hepa-1c1c7, Table 3; QR induction, hepatoma cell assay of Example 1; read-out: CD.
For `C[S+]([O-])CCCCN=C=S` (stereo not shown) [GHP 1005], the EC (2-fold QR specific activity) came out at 0.2 µM.

Staying with this data set, now noted: Mus musculus, Hepa-1c1c7, read-out: CD value, Table 1; QR induction, Hepa 1c1c7 cells.
For `C[S+]([O-])CCCCCN=C=S` (stereo not shown) [Alyssin], the EC (2-fold QR specific activity) was found to be 0.95 µM.

Turning to `CSCCCCCN=C=S` [Berteroin], the EC (2-fold QR specific activity) stood at 1.7 µM.

Consider `CS(=O)(=O)CCCN=C=S` [Cheirolin], for which the EC (2-fold QR specific activity) was determined as 1.3 µM.

With `CS(=O)(=O)CCCCCN=C=S` [GHP 1003, 1-isothiocyanato-5-methylsulfonylpentane], the EC (2-fold QR specific activity) turned out to be 0.98 µM.

In the case of `C[S+]([O-])CCCN=C=S` (stereo not shown) [Iberin], the EC (2-fold QR specific activity) amounted to 2.4 µM.

For the molecule `CSCCCN=C=S` [Iberverin], the EC (2-fold QR specific activity) came out at 3.5 µM.

The data set is the same for the next values; noted with them: Mus musculus, Hepa-1c1c7, read-out: CD, Table 3; QR induction, hepatoma cell assay of Example 1.
Consider `CS(=O)(=O)[C@@H]1CCC[C@@H](CN=C=S)C1` (relative stereo) [GHP 1079, cis- or trans-3-(methylsulfonyl)cyclohexylmethylisothiocyanate], for which the EC (2-fold QR specific activity) worked out at 0.48 µM.

With `CS(=O)(=O)[C@@H]1CCC[C@H](CN=C=S)C1` (relative stereo) [GHP 1080, cis- or trans-3-(methylsulfonyl)cyclohexylmethylisothiocyanate], the EC (2-fold QR specific activity) amounted to 0.41 µM.

In the case of `CSCCCCCN=C=S` [GHP 1001], the EC (2-fold QR specific activity) was determined as 1.71 µM.

On to `C[S+]([O-])CCCCCN=C=S` (stereo not shown) [GHP 1002], for which the EC (2-fold QR specific activity) is 0.94 µM.

Regarding `CS(=O)(=O)CCCCCN=C=S` [GHP 1003, 1-isothiocyanato-5-methylsulfonylpentane], the EC (2-fold QR specific activity) is 0.98 µM.

On to `S=C=NCCCCCSSCCCCCN=C=S` [GHP 1004], for which the EC (2-fold QR specific activity) is 0.83 µM.

Consider `CS(=O)(=O)CCCCN=C=S` [GHP 1007], for which the EC (2-fold QR specific activity) was found to be 0.82 µM.

Turning to `CSCCCN=C=S` [GHP 1008], the EC (2-fold QR specific activity) came out at 3.52 µM.

For `C[S+]([O-])CCCN=C=S` (stereo not shown) [GHP 1009], the EC (2-fold QR specific activity) was 2.36 µM.

Consider `CS(=O)(=O)CCCN=C=S` [GHP 1010], for which the EC (2-fold QR specific activity) was 1.32 µM.

As for `CSCc1ccccc1CN=C=S` [GHP 1021], the EC (2-fold QR specific activity) was found to be 4.3 µM.

In the case of `CSc1ccccc1CCN=C=S` [GHP 1022], the EC (2-fold QR specific activity) came out at 7.4 µM.

Consider `CSCCc1ccccc1N=C=S` [GHP 1023], for which the EC (2-fold QR specific activity) was determined as 100 µM.

For the molecule `COc1ccccc1N=C=S` [GHP 1031], the EC (2-fold QR specific activity) is 100 µM.

Take `S=C=Nc1ccccc1Cl` [GHP 1032]: the EC (2-fold QR specific activity) came out at 100 µM.

Take `NC(=O)c1ccc(N=C=S)cc1` [GHP 1033]: the EC (2-fold QR specific activity) was determined as 100 µM.

As for `COc1ccccc1CN=C=S` [GHP 1041], the EC (2-fold QR specific activity) was 2.41 µM.

Regarding `COc1cccc(CN=C=S)c1` [GHP 1042], the EC (2-fold QR specific activity) was 8.65 µM.

Regarding `COc1ccc(CN=C=S)cc1` [GHP 1043], the EC (2-fold QR specific activity) worked out at 25 µM.

Turning to `COc1cccc(OC)c1CN=C=S` [GHP 1044], the EC (2-fold QR specific activity) amounted to 5.8 µM.

For the molecule `CN(C)c1ccccc1CN=C=S` [GHP 1045], the EC (2-fold QR specific activity) is 12.5 µM.

On to `CSc1ccccc1CN=C=S` [GHP 1046], for which the EC (2-fold QR specific activity) stood at 6.8 µM.

Take `Fc1ccccc1CN=C=S` [GHP 1047]: the EC (2-fold QR specific activity) came out at 13.1 µM.

Turning to `S=C=NCc1ccccc1Cl` [GHP 1048], the EC (2-fold QR specific activity) turned out to be 14.1 µM.

`S=C=NCc1ccccc1Br` [GHP 1049]: the EC (2-fold QR specific activity) was 12.5 µM.

On to `Cc1ccccc1CN=C=S` [GHP 1050], for which the EC (2-fold QR specific activity) was 3.7 µM.

Consider `CCOc1ccccc1CN=C=S` [GHP 1051], for which the EC (2-fold QR specific activity) was 2.5 µM.

For `S=C=NC1CCc2ccccc21` (stereo not shown) [GHP 1052], the EC (2-fold QR specific activity) was 38.9 µM.

Consider `CCc1ccccc1CN=C=S` [GHP 1053], for which the EC (2-fold QR specific activity) was determined as 12.5 µM.

Regarding `CCOC(=O)CN=C=S` [GHP 1061], the EC (2-fold QR specific activity) was 8.2 µM.

Consider `CS(=O)(=O)c1ccc(CN=C=S)cc1` [GHP 1062], for which the EC (2-fold QR specific activity) came out at 1.2 µM.

`CS(=O)(=O)C1CC2CC1CC2N=C=S` (stereo not shown) [GHP 1063]: the EC (2-fold QR specific activity) stood at 1.02 µM.

As to `CC(=O)C1CC2CC1CC2N=C=S` (stereo not shown) [GHP 1065], the EC (2-fold QR specific activity) was found to be 0.77 µM.

`CC(=O)C1CC2CC(N=C=S)C1C2` (stereo not drawn) [GHP 1066, exo-2-acetyl-6-isothiocyanatonorbornane]: the EC (2-fold QR specific activity) turned out to be 0.26 µM.

For `CS(=O)(=O)C1CC2CC(N=C=S)C1C2` (stereo not drawn) [GHP 1068, exo-2-isothiocyanato-6-methylsulfonylnorbornane], the EC (2-fold QR specific activity) was found to be 0.15 µM.

Regarding `COC(=O)C1CC2CC1CC2N=C=S` (stereo not shown) [GHP 1069], the EC (2-fold QR specific activity) turned out to be 0.68 µM.

Regarding `COC(=O)C1CC2CC(N=C=S)C1C2` (stereo not shown) [GHP 1070], the EC (2-fold QR specific activity) amounted to 1.6 µM.

In the case of `N#CC1CC2CC1CC2N=C=S` (stereo not shown) [GHP 1071], the EC (2-fold QR specific activity) turned out to be 0.59 µM.

As to `O=[N+]([O-])C1CC2CC1CC2N=C=S` (stereo not shown) [GHP 1072], the EC (2-fold QR specific activity) was determined as 1.05 µM.

`CS(=O)(=O)[C@H]1CC[C@@H](N=C=S)CC1` [GHP 1073, cis-1-isothiocyanate-4-methylsulfonylcyclohexane]: the EC (2-fold QR specific activity) came to 0.44 µM.

As for `CCOC(=O)C(CCS(C)(=O)=O)N=C=S` (stereo not shown) [GHP 1074], the EC (2-fold QR specific activity) was determined as 2.64 µM.

For `CC(O)C1CC2CC1CC2N=C=S` (stereo not drawn) [GHP 1075, exo-2-(1'-hydroxyethyl)-5-isothiocyanatonorbornane], the EC (2-fold QR specific activity) turned out to be 0.45 µM.

As for `OC1CC2CC1CC2N=C=S` (stereo not shown) [GHP 1077], the EC (2-fold QR specific activity) came out at 1.85 µM.

Take `CP(C)(=O)CCCCN=C=S` [GHP 1078, 1-isothiocyanato-4-dimethylphosphonyl-butane]: the EC (2-fold QR specific activity) is 0.43 µM.

Consider `CCCCC(=O)CCCCN=C=S` [GHP 1081], for which the EC (2-fold QR specific activity) was determined as 2 µM.

On to `N#CCCCCN=C=S` [GHP 1101], for which the EC (2-fold QR specific activity) stood at 1.97 µM.

As for `COC(=O)CCCCN=C=S` [GHP 1102], the EC (2-fold QR specific activity) came out at 2.81 µM.

`O=C(O)CCCCN=C=S` [GHP 1103]: the EC (2-fold QR specific activity) was determined as 2.19 µM.

On to `CC(=O)CCCCN=C=S` [GHP 1105, 6-isothiocyanato-2-hexanone], for which the EC (2-fold QR specific activity) stood at 0.23 µM.

In the case of `CC(O)CCCCN=C=S` (stereo not shown) [GHP 1106, 6-isothiocyanato-2-hexanol], the EC (2-fold QR specific activity) amounted to 0.35 µM.

Staying with this data set, now noted: Mus musculus, Hepa-1c1c7, text; isolated (R)- and synthetic (R,S)-sulforaphane; read-out: CD values.
As for `C[S+]([O-])CCCCN=C=S` (racemic) [(R,S)-sulforaphane], the EC (2-fold QR specific activity) fell in the range of 0.2 to 0.4 µM.

Take `C[S@@+]([O-])CCCCN=C=S` [(R)-sulforaphane]: the EC (2-fold QR specific activity) was in the range of 0.2 to 0.4 µM.

The data set is the same for the next values; noted with them: Table 3; QR induction, hepatoma cell assay of Example 1; read-out: CD.
As for `CS(=O)(=O)C1CC2CC1CC2N=C=S` (stereo not shown) [GHP 1064], the EC (2-fold QR specific activity) is on record as 0.66 µM.

As to `CC(=O)C1CC2CC1CC2N=C=S` (stereo not drawn) [GHP 1067, exo-2-acetyl-5-isothiocyanatonorbornane], the EC (2-fold QR specific activity) stood at 0.43 µM.

The data set is the same for the next values; noted with them: in cell culture.
On to `C[S+]([O-])CCCCCN=C=S` (stereo not shown) [Alyssin], for which the “activity as inducers compared with sulforaphane and sulforaphene” value is “less active”.

On to `CSCCCCCN=C=S` [Berteroin], for which the “activity as inducers compared with sulforaphane and sulforaphene” value is reported as “less active”.

As for `CS(=O)(=O)CCCN=C=S` [Cheirolin], the “activity as inducers compared with sulforaphane and sulforaphene” value is listed as “less active”.

For the molecule `C[S+]([O-])CCCN=C=S` (stereo not shown) [Iberin], the “activity as inducers compared with sulforaphane and sulforaphene” value was “less active”.

Take `CSCCCN=C=S` [Iberverin]: the “activity as inducers compared with sulforaphane and sulforaphene” value is recorded as “less active”.

The test system of another data set is Hepa 1c1c7 murine hepatoma cells.
Assay: not given
To be noted: Hepa 1c1c7 cells.
For the molecule `C[S+]([O-])CCCCN=C=S` (racemic) [(R,S)-sulforaphane], the cytotoxicity in words entry is reported as “relatively noncytotoxic”.

Turning to `C[S@@+]([O-])CCCCN=C=S` [(R)-sulforaphane], the cytotoxicity in words entry is “relatively noncytotoxic”.

The test system of another data set is quinone reductase (QR) in Hepa 1c1c7 murine hepatoma cells.
Assay: not given
To be noted: footnote 3, reported value; cited from earlier work. Also on record: unit not given here.
Turning to `S=C=NC1CCCCC1` [cyclohexylisothiocyanate], the “CD value (reported)” value was 14.
